Experimental data as given in patent publication US5731323A, “Quinuclidine derivatives as squalene synthase inhibitors” (Zeneca Limited, priority 1992, dated 1998).

Assays:
Squalene synthase = experiment: Inhibition of squalene synthase (squalene formation from tritiated farnesyl pyrophosphate, rat liver microsomal protein); type: biochemical; details: 2.5 μM, substrate 20 μM, 15 minutes, 37° C.
Experimental: (a) Inhibition of Squalene synthase
In this test, the ability of a compound to prevent the formation of squalene from a radioactive substrate (tritiated farnesyl pyrophosphate) is assessed.
The test compound is incubated at a concentration of 25 micromolar in 200 μl of a buffered solution containing potassium phosphate (50 mM), MgCl2 (4.95 mM), KF (9.9 mM), NADPH (0.9 mM) and rat liver microsomal protein (20 μg). Rat liver microsomes are prepared by the method described in published European Patent Application No. 324,421 and stored in liquid nitrogen prior to assay. Assay vials are kept at 37° C. throughout the incubation.
The reaction is started with the addition of the substrate (1-[^3 H]-farnesyl pyrophosphate), final concentration 20 μM, and stopped after 15 minutes reaction time with the addition of 50 μl of 4% KOH. The reaction products are separated from unreacted substrate after application to a C-18 octadecyl 1 ccBond column (Analytichem Int product No. 617101). An aqueous fraction is eluted with 250 μl of 0.1M KOH. Squalene is then eluted with 1.0 ml 10% ethylacetate in hexane and radioactivity determined. The difference in radioactivity in the presence and absence of the test compound is used to determine the level of inhibition. […] The IC50 can then be determined from a plot of percentage inhibition against concentration of test compound.

[1] = system: de novo hepatic cholesterol synthesis; experiment: Acute rat cholesterol synthesis assay (de novo hepatic cholesterol synthesis from exogenously administered 14C-acetate); type: in vivo; details: female rats, dose and route not stated
Experimental: (b) Acute rat cholesterol synthesis assay.
This is an acute in vivo test in the rat to measure de novo hepatic cholesterol synthesis from exogenously administered ^14 C-acetate.
Female rats (35-55 g) are housed in reverse lighting conditions (red light from 0200 h-1400 h) for a period of about 2 weeks prior to test. Animals are allowed free access to chow and drinking water throughout this period. At test, animals should weigh 125-150 g.
Test compounds may be administered by oral gavage, dissolved or suspended in 0.5% polysorbate, or by ip or iv dosing. Control animals receive vehicle alone. After 1 hour the rats are injected ip with 25 μCi [2-^14 C]-acetate (NEN DUPONT. specific activity, 45-60 mCi/mmol NEC-085H, or AMERSHAM specific activity, 50-60 mCi/mmol CFA 14) in a volume of 0.25 ml saline (100 μCi/ml). After a further hour, rats are terminally anaesthetised with halothane and a blood sample obtained from the abdominal vena cava.
1 ml of plasma is lyophilised and then saponified in 2 ml ethanolic KOH (1 part 33% KOH, 9 parts ethanol) at 75° C. for 2 hours. After addition of an equal quantity of water, non-saponifiable lipids are extracted with two 5 ml volumes of hexane. The hexane extracts are evaporated to dryness and the residues dissolved in ethanol to determine cholesterol specific radioactivity. ED50 values can be determined in the standard way.

## CCCCOc1ccc(C#CC2(O)CN3CCC2CC3)cn1 (centres unmarked) [Example 1, 3-[2-(6-butoxy-3-pyridyl)ethynyl]quinuclidin-3-ol]
Squalene synthase
  inhibition (squalene synthase): about 99%
[1]
  decrease in the rate of cholesterol biosynthesis: 71%
